Results from patent publication US9777000B2, “Pyrazole derivative” (MOCHIDA PHARMACEUTICAL CO., LTD., priority 2013, dated 2017).

Biological target: human PDE10 (Homo sapiens (Human), UniProt Q9Y233)
Test: Evaluation of enzyme inhibitory activity: human PDE10 inhibitory effect (IMAP TR-FRET)
Assay type: biochemical
Conditions: cAMP substrate
Outline: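 IMAP TR-FRET assay: PDE10 (diluted to 2 ng/mL) was preincubated 5 min with compound in Tris pH 7.2, 10 mM MgCl2, 0.1% BSA, then reacted 60 min at room temperature with cAMP (diluted to 400 nM). 5′-AMP was read as 520/490 nm TR-FRET (ex 340 nm) after ≥3 h binding; IC50 was referenced to solvent (0%) and no-enzyme (100%) wells.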

Sequence of human PDE10 (Q9Y233 whole entry): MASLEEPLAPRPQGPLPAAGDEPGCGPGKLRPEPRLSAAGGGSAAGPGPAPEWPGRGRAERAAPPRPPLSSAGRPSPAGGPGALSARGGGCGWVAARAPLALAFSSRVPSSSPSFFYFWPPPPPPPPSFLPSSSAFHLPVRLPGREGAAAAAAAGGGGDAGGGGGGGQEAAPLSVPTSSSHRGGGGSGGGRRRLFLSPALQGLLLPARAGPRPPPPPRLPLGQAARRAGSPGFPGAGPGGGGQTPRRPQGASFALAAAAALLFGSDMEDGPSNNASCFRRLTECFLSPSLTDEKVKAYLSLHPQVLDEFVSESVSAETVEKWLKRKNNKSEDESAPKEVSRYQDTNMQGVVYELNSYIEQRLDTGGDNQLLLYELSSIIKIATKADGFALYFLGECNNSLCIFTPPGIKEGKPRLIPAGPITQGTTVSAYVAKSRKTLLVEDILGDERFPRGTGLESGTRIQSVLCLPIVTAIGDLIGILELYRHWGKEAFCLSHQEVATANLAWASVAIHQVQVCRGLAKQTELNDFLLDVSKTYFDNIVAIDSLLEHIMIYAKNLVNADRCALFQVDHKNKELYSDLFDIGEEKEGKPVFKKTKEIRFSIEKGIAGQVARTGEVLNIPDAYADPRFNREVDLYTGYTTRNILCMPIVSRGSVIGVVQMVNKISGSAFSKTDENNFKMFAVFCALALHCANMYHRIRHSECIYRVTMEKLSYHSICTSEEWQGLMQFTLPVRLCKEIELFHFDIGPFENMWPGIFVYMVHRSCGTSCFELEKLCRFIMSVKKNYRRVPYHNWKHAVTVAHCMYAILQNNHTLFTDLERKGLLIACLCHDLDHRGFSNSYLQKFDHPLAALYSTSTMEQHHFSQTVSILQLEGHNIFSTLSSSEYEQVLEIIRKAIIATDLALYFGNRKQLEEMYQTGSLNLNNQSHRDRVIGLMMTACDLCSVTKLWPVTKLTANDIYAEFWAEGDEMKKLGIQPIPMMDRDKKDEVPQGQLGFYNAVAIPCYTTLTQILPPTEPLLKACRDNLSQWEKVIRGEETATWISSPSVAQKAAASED

Compound | IC50 [nM]
Cc1cncc(-c2cnn(C)c2C(=O)Nc2ccn3nc(N4CCC[C@@H]4C)nc3c2)n1 [Example 4.6, (S)-1-methyl-4-(6-methylpyrazin-2-yl)-N-(2-(2-methylpyrrolidin-1-yl)-[1,2,4]triazolo[1,5-a]pyridin-7-yl)-1H-pyrazole-5-carboxamide] | < 5
Cn1ncc(-c2ccc(C#N)cn2)c1C(=O)Nc1cc2nc(-c3ccccc3)nn2cc1F [Example 3.23, 4-(5-cyanopyridin-2-yl)-N-(6-fluoro-2-phenyl-[1,2,4]triazolo[1,5-a]pyridin-7-yl)-1-methyl-1H-pyrazole-5-carboxamide] | < 5
Cc1ccnc(-c2cnn(C)c2C(=O)NC2CCn3cc(-c4ccccc4)nc3C2)c1 (stereo not drawn) [Example 2.22, 1-methyl-4-(4-methylpyridin-2-yl)-N-(2-phenyl-5,6,7,8-tetrahydroimidazo[1,2-a]pyridin-7-yl)-1H-pyrazole-5-carboxamide] | < 5
CCc1sc(-c2cnn(C)c2C(=O)NC2CCn3nc(-c4ccccc4)nc3C2)nc1C(F)F (stereo not drawn) [Example 5.6, 4-(4-(difluoromethyl)-5-ethylthiazol-2-yl)-1-methyl-N-(2-phenyl-5,6,7,8-tetrahydro-[1,2,4]triazolo[1,5-a]pyridin-7-yl)-1H-pyrazole-5-carboxamide] | < 5
Cc1cc(C)nc(-c2cnn(C)c2C(=O)Nc2ccn3nc(N4CCC[C@@H]4C)nc3c2)c1 [Example 4.8, (S)-4-(4,6-dimethylpyridin-2-yl)-1-methyl-N-(2-(2-methylpyrrolidin-1-yl)-[1,2,4]triazolo[1,5-a]pyridin-7-yl)-1H-pyrazole-5-carboxamide] | < 5
COc1cccnc1-c1cnn(C)c1C(=O)Nc1cc2nc(-c3ccccc3)nn2cc1F [Example 3.7, N-(6-fluoro-2-phenyl-[1,2,4]triazolo[1,5-a]pyridin-7-yl)-4-(3-methoxypyridin-2-yl)-1-methyl-1H-pyrazole-5-carboxamide] | < 5
Cc1ccc(-c2cnn(C)c2C(=O)Nc2ccn3cc(-c4ccccc4)nc3c2)nc1 [Example 1.1, 1-methyl-4-(5-methylpyridin-2-yl)-N-(2-phenylimidazo[1,2-a]pyridin-7-yl)-1H-pyrazole-5-carboxamide] | < 5
Cn1ncc(-c2nc(C(F)(F)F)cs2)c1C(=O)NC1CCn2cc(-c3ccccc3)nc2C1 (stereo not drawn) [Example 2.3, 1-methyl-N-(2-phenyl-5,6,7,8-tetrahydroimidazo[1,2-a]pyridin-7-yl)-4-(4-(trifluoromethyl)thiazol-2-yl)-1H-pyrazole-5-carboxamide] | < 5
C=Cc1sc(-c2cnn(C)c2C(=O)NC2CCn3nc(-c4ccccc4)nc3C2)nc1C(F)F (stereo not drawn) [Example 5.5, 4-(4-(difluoromethyl)-5-vinylthiazol-2-yl)-1-methyl-N-(2-phenyl-5,6,7,8-tetrahydro-[1,2,4]triazolo[1,5-a]pyridin-7-yl)-1H-pyrazole-5-carboxamide] | < 5
Cc1cccc(-c2cnn(C)c2C(=O)Nc2ccn3nc(N4CCCC4)nc3c2)n1 [Example 4.31, 1-methyl-4-(6-methylpyridin-2-yl)-N-(2-(pyrrolidin-1-yl)-[1,2,4]triazolo[1,5-a]pyridin-7-yl)-1H-pyrazole-5-carboxamide] | < 5
Cn1ncc(-c2nc(C(F)F)cs2)c1C(=O)NC1CCn2cc(-c3ccccc3)nc2C1 (stereo not drawn) [Example 2.4, 4-(4-(difluoromethyl)thiazol-2-yl)-1-methyl-N-(2-phenyl-5,6,7,8-tetrahydroimidazo[1,2-a]pyridin-7-yl)-1H-pyrazole-5-carboxamide] | < 5
Cn1ncc(-c2nc(C(F)(F)F)cs2)c1C(=O)Nc1ccn2cc(-c3ccccc3)nc2c1 [Example 1.5, 1-methyl-N-(2-phenylimidazo[1,2-a]pyridin-7-yl)-4-(4-(trifluoromethyl)thiazol-2-yl)-1H-pyrazole-5-carboxamide] | < 5
